Measured values taken from patent US12643887B2, “Heterocyclic derivatives with cardiomyocyte proliferation activity for treatment of heart diseases” (Tongji University, priority 2019, dated 2026).

What was measured:
[1] = tested on: Neonatal Rat Ventricular Myocytes (NRVMs); assay: Myocyte proliferation assay (EdU assay) in neonatal rat ventricular myocytes; format: cell-based; conditions: growth relative to blank myocyte growth without compound added
Method in brief: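 After 36 h compound exposure (1, 3 or 10 uM in 6% FBS/ITS DMEM, following 24 h low-serum culture), NRVMs were pulsed with EdU for 12 h. Proliferation scored by automated confocal imaging of EdU click chemistry, ab8295 immunostaining and DAPI nuclei in fixed cultures.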

[2] = target: T1, human HIPK1 (Homo sapiens, UniProt Q86Z02); assay: HIPK1 enzyme assay (ADP-Glo); format: biochemical; conditions: ADP-Glo, ATP 5 μM; read-out: HIPK1 IC50
T1 construct: Recombinant human HIPK1 (156-555); GST (N); purchased SignalChem H03-11G; host or cells: Sf9 insect cells
T1 sequence (Q86Z02 156-555): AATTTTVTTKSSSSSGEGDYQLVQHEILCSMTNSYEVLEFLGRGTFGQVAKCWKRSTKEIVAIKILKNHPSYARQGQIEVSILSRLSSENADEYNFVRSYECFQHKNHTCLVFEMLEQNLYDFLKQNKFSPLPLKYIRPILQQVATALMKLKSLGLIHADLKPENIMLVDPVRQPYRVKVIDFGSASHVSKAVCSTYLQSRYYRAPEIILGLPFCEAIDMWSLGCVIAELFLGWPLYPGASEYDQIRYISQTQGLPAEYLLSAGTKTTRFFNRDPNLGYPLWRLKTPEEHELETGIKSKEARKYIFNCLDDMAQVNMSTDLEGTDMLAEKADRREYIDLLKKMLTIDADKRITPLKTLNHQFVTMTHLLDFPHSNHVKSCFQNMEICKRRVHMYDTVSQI
Method in brief: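 Recombinant GST-tagged HIPK1 (156-555, Sf9), 4 nM, preincubated 30 min at 25° C with compound in Tris pH 7.5/MgCl2/BSA/DTT, then reacted 90 min with 0.05 mg/ml MBP and 5 μM ATP. ADP formed read by ADP-Glo luminescence; IC50 from four-parameter logistic fit of % inhibition versus Max/Min controls.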

O=C1NC(N(CC2CC2)c2ccc3ncsc3c2)=N/C1=C\c1ccc2ncsc2c1 [Example 105, (Z)-2-(benzo[d]thiazol-6-yl(cyclopropylmethyl)amino)-5-(benzo[d]thiazol-6-ylmethylene)-3,5-dihydro-4H-imidazol-4-one]
Avg 1 uM (average myocyte proliferation) ([1]; compound 1 uM): ** (10%-50%)
Avg 3 uM (average myocyte proliferation) ([1]; compound 3 uM): ** (10%-50%)
IC50 [2]: > 10 µM
